We go through one substance from US11752180B2, “Intestinal protectant” (National University Corporation Asahikawa Medical University, priority 2010, dated 2023).

Where no end group is shown, it is not given here.

The test system of the experiment is integrin (integrin β). The experiment is described as follows: Interaction between polyphosphoric acid and integrin: mannitol ex vivo loop assay with peptide antagonist of integrin. Details: species or system mouse. As for the experimental part: Using a peptide antagonist of integrin, the interaction between polyphosphoric acid and integrin was analyzed. For the peptide antagonist of integrin, the peptide having the amino acid sequence of Gly-Arg-Gly-Asp-Thr-Pro (GRGDTP) (hereinafter also referred to as “GRGDTP”) was used. GRGDTP has the sequence of Arg-Gly-Asp (RGD), which is recognized by integrin β.
The intestinal tract permeability experiment on mannitol by ex vivo loop assay was carried out in the same manner as in Example 9 and Example 11 except that GRGDTP was added in a concentration of 100 μg/ml, in addition to the enzymatically synthesized polyphosphoric acid or the chemically synthesized polyphosphoric acid, to the PBS solution to be filled in the intestinal tract, and the intestinal tract barrier function was evaluated.

Regarding GRGDTP [peptide antagonist of integrin], the “effect of GRGDTP on the intestinal tract barrier effect of chemically synthesized polyphosphoric acid (mannitol leakage)” value (GRGDTP 100 μg/ml in combination with chemically synthesized polyphosphoric acid) was “had the same result”. Moreover, the “effect of GRGDTP on the intestinal tract barrier effect of enzymatically synthesized polyphosphoric acid (mannitol leakage)” value (GRGDTP 100 μg/ml in combination with enzymatically synthesized polyphosphoric acid) is listed as “remarkably inhibited”.
